In US20260048118A1, “COMPOSITIONS AND METHODS FOR ENHANCING TRIPLEX AND NUCLEASE-BASED GENE EDITING” (Yale University, priority 2018, published 2026):

Tests used:
[1] = tested on: K562 cells carrying a BFP/GFP reporter gene; assay: CRISPR/Cas9 D10A nickase gene editing in K562 BFP/GFP reporter cells, flow cytometry; assay type: cell-based, human; conditions: full-length 3E10 1.5 mg/mL=10 μM, RNP plus donor DNA nucleofected, two days
Procedure: K562 cells carrying a BFP/GFP reporter gene (Richardson, et al., Nat. Biotechnol., 34 (3): 339-44 (2016)) were transfected with CRISPR/Cas9 WT or CRISPR/Cas9 D10A nickase variant enzymes plus a guide RNA targeting the mutation site in GFP. Some samples were also treated with full-length 3E10, at a concentration of 1.5 mg/mL=10 μM.
Cas9 protein and guide RNAs were introduced by nucleofection as a ribonucleoprotein (RNP) complex. 45 pmol of Cas9 protein (D10A nickase variant or WT, both obtained from PNA Bio) with 45 pmol of sgRNA (synthesized with Invitrogen GeneArt kit) in Cas9 nuclease buffer (NEB), were pre-incubated for 5 minutes at room temperature.
Cells were nucleofected with the RNP complex and donor DNA having the sequence:
The frequency of gene editing was measured two days later by flow cytometry for green fluorescence.

[2] = tested on: SC-1 cells, a human lymphoblastoid cell line that carries the SCD mutation; assay: Beta globin editing in SC-1 cells, ddPCR; assay type: cell-based; conditions: 2 mg nanoparticles per well, 48 h, 3E10 line: 3E10 prior to nanoparticles
Procedure: SC-1 cells, a human lymphoblastoid cell line that carries the SCD mutation, were treated with 2 mg of nanoparticles per well with or without 3E10. After 48 hours, the cells were washed prior to genomic DNA isolation (SV Wizard, Promega). Freshly isolated genomic DNA was analyzed by droplet digital PCR (ddPCR) for editing frequencies.

[3] = tested on: bone marrow cells of Townes mice (codon 6 mutation in the beta globin gene); assay: In vivo PNA/DNA editing in Townes mice, bone marrow cells analysed by ddPCR; parameters: species or system mouse; conditions: 4 doses of 2 mg nanoparticles over 2 weeks, analysed after two months; 3E10 line: 1 mg 3E10 i.p. 3 h prior to each dose
Procedure: To further validate whether 3E10 can boost gene editing in vivo, the Townes model (the same sickle cell transgenic mouse model used in Examples 3 and 4) was used. Mice were injected with a total of 4 doses of 2 mg of nanoparticles containing PNA/donor DNA over the course of 2 weeks, with the goal of correcting the codon 6 mutation in the beta globin gene. Three hours prior to each nanoparticle administration, mice were injected with 1 mg of 3E10 intraperitoneally (i.p). After two months, bone marrow cells were harvested and analyzed for editing via digital droplet PCR (ddPCR). Injections were performed […] every 3 days over the course of 2 weeks as described above.

[4] = tested on: bone marrow cells from Townes mice (beta globin gene, SCD mutation); assay: PNA/DNA editing of beta globin SCD mutation in bone marrow cells from Townes mice, ddPCR; assay type: cell-based, mouse; conditions: 2 mg nanoparticles per well, 48 h, 3E10 line: full length 3E10 plus nanoparticles
Procedure: Bone marrow cells were isolated from the same transgenic mouse model of sickle cell disease described above in Example 3 (Townes model, Jackson Laboratory). Cells were treated with full length 3E10 plus 2 mg of nanoparticles per well. The nanoparticles contained the donor DNA plus tcPNA2A, designed to bind to and correct the beta globin gene at the site of the SCD mutation (A:T to T:A).
After 48 hours, the cells were washed prior to genomic DNA isolation (SV Wizard, Promega). Freshly isolated genomic DNA was analyzed by droplet digital PCR (ddPCR) to quantify gene editing frequencies.

[5] = tested on: CD117+ cells from bone marrow and spleen of β-globin/GFP transgenic mice; assay: In vivo gene editing in CD117+ cells of β-globin/GFP transgenic mice, GFP flow cytometry; parameters: species or system mouse; conditions: 0.5 mg 3E10 i.p. 3 h before 2 mg PNA/DNA nanoparticles i.v.; harvested after eight days
Procedure: To evaluate the effects of 3E10 on PNA/DNA directed gene editing in vivo, the same β-globin/GFP transgenic mouse model described above was used. Three hours prior to treatment with nanoparticles, mice were injected with 0.5 mg of 3E10 intraperitoneally (i.p.). Either the full-length 3E10 or a single-chain variable fragment (scFv) were used. Two mg of nanoparticles containing PNA/Donor DNA were then injected intravenously. After eight days, bone marrow and spleens were harvested and CD117+ cells (C-KIT+, a marker of hematopoietic stem and progenitor cells) from these tissues were isolated using a Hematopoietic Progenitor Stem Cell Enrichment Set (BD Bioscience). Following enrichment, cells were analyzed via flow cytometry for GFP expression.

Substance: 3E10: cell-penetrating monoclonal anti-DNA antibody that binds to and inhibits RAD51; produced by ATCC No. PTA 2439 hybridoma
- effect on gene editing by nickase Cas9 D10A (green fluorescence) [1]: substantially boosted gene editing
- gene editing frequency (ddPCR) [2]: 17%
- average editing frequency in bone marrow cells (ddPCR) [3]: 2.1%
- gene editing frequency (ddPCR) [4]: more than 8%
- gene editing in bone marrow CD117+ cells vs nanoparticles alone [5]: higher levels of gene editing
- gene editing in spleen CD117+ cells vs nanoparticles alone [5]: higher levels of gene editing
